Literature values as cited in patent US9057089B2, “Methods for natural product optimization” (The University of Wyoming, priority 2008, dated 2015).

Assays:
[1] = test system: fungi, protozoa, or eukaryotic cells
[2] = in vivo
peptidoglycan synthesis = conditions: metabolic labeling
[3] = test system: transpeptidases (penicillin binding proteins, PBPs)
[4] = human clinical trials
RpoB-V1275F mutant = conditions: rpoB Val→Phe substitution (position 1275)

## CCCC1OC(=O)C(C)CC(C)CCCCC(=O)CCCC(CC)/C=C/C=C(\COC)CCC(O)C(O)CC(O)CNC1=O (centres unmarked) [Antibiotic TA, myxovirescin]
[1]
  activity on fungi, protozoa, or eukaryotic cells: not active
[2]
  safety: safe
Peptidoglycan synthesis
  peptidoglycan synthesis: blocks peptidoglycan synthesis
[3]
  inhibition of final cross-linking step catalyzed by transpeptidases: does not inhibit
[4]
  therapeutic effect in periodontal diseases: effective therapeutic
[4]; only two treatments
  three indices (plaque, gingival, and bleeding): significantly improved
Growing E. coli cells; sera
  effect of sera on activity: not inhibited by sera
Growing E. coli cells; within 30 minutes at 2 μg/ml
  growing E. coli cells killed: 99%

## C/C(=C\Cc1ccccc1)CCC(=O)C[C@H]1C[C@H](O)C/C(C)=C/C/C=C/C/C(CC(=O)O)=C\C(=O)O1 [Rip, ripostatin]
RpoB-V1275F mutant
  increase of antibiotic MIC values relative to wild type cells: > 16 fold

## myxopyronin
RpoB-V1275F mutant
  increase of antibiotic MIC values relative to wild type cells: > 32 fold

## C/C=C/C/C=C(\C)C(O)CC/C(C)=C/C=C(\C)C(=O)c1c(O)cc([C@H](C)CC/C=C/NC(=O)OC)oc1=O (some centres unmarked) [Cor, corallopyronin]
RpoB-V1275F mutant
  increase of antibiotic MIC values relative to wild type cells: > 8 fold
